# Test results reported in US6586425B2, “Cytoskeletal active agents for glaucoma therapy” (Wisconsin Alumni Research Foundation, priority 1996, dated 2003).
# Where “and” joins values, the source holds several entries; their conditions need not be identical. Identical values can stand only once. Entries after “also recorded” stand apart in the source; their conditions may differ.
# Assays:
# living monkey eye [1] = settings: in vivo
# ciliary muscle strip = experiment: Pilocarpine-induced contraction of isolated ciliary muscle strip (muscle chamber); parameters: species or system rhesus monkeys (Macaca mulatta)
# [2] = tested on: normal living monkey eyes; experiment: Miotic and accommodative response to intramuscular pilocarpine; assay type: in vivo, monkeys
# [3] = tested on: ciliary muscle-disinserted monkey eyes; experiment: Outflow facility in ciliary muscle-disinserted eyes; assay type: in vivo, cynomolgus and rhesus monkeys; settings: H-7 300 μM, nine monkeys
# living monkey eye [4] = experiment: Pupil size and refraction after topical H-7; assay type: in vivo, cynomolgus monkeys; settings: H-7 150 mM topical, six monkeys
# corneal endothelium = settings: cynomolgus monkey, in vivo
smiles,measurement,setting,value
"CC1CNCCN1S(=O)(=O)c1cccc2cnccc12 (stereo not shown) [H-7, 1-(5-isoquinolinyl-sulfonyl)-2-methylpiperazine]",drug-free baseline facility vs first baseline,living monkey eye [1],significant increase in facility
same,selectivity longitudinal vs circular vector,ciliary muscle strip,no selectivity for one vector over the other
same,time to inhibition of the initial pilocarpine contraction,ciliary muscle strip; 10 μM pilocarpine + 300 μM H-7,≤ 10 min
same,contraction to 10 μM pilocarpine after washout,ciliary muscle strip; 90 minute washout after 300 μM H-7,no contraction in either vector
same,contraction to 10 μM pilocarpine after washout,ciliary muscle strip; 2.5 hours after removal of H-7,sluggish contraction in both vectors
same,effect on pilocarpine-induced miosis,[2]; H-7 intracameral (~300 μM) or intravitreal (300 μM-1.2 mM),inhibits ipsilateral pilocarpine-induced miosis
same,effect on pupil after phenylephrine,[2]; H-7 intracameral or intravitreal,dilates the ipsilateral pupil even beyond the effect of phenylephrine
same,"facility increase, ciliary muscle disinserted vs non-disinserted eyes",[3],essentially identical proportional increase in outflow facility
same,effect on pupil size,living monkey eye [4],did have an effect on pupil size
same,effect on refraction,living monkey eye [4],no statistically significant difference in refraction
same,change in corneal endothelial cell counts,corneal endothelium,did not reveal a statistical change in cell counts
same,corneal endothelial cell morphology,corneal endothelium,no morphological changes in cells were observed
C/C1=C\[C@H](C)C[C@H](C)OC(=O)C[C@H](c2ccc(O)cc2)NC(=O)[C@@H](Cc2c(Br)[nH]c3ccccc23)N(C)C(=O)[C@H](C)NC(=O)[C@@H](C)C1 [Jas],effect of Jas on Lat B-induced facility increase,living monkey eye [1],did not affect the 200 nM Lat B-induced facility increase; also recorded: did not affect the 60 nM Lat B-induced facility increase
same,effect on outflow facility,living monkey eye [1],no significant effect on outflow facility
same,"outflow facility increase, adjusted for baseline and resistance washout in contralateral eyes",living monkey eye [1],157±57%
CN[C@@H]1C[C@H]2O[C@@](C)([C@@H]1OC)n1c3ccccc3c3c4c(c5c6ccccc6n2c5c31)C(=O)NC4 [staurosporine],"Facility PRx, Rx/Cont",living monkey eye [1],1.99 ± 0.43 and 1.03 ± 0.17 and 1.57 ± 0.25
